Test results reported in patent US20240130999A1, “Inhibition of SLC4A4 in the Treatment of Cancer” (VIB VZW, priority 2021, published 2024).

Key:
KPC orthotopic tumors [1] = assay: FACS analysis of immune infiltrate in orthotopic KPC tumors of DIDS-treated mice; type: in vivo, mouse; details: WT KPC orthotopic tumors, DIDS vs DMSO, flow cytometry
Method: (§1) C57BL6/N were injected subcutaneously in the right flank with 1*10^6 Panc02 cells (pancreatic cancer cell line), 2*10^6 KP cells (lung cancer cell line), 0.8*10^6 KR158B cells (glioblastoma cell line), or 5*106 CMT-93 cells (colorectal cancer cell line) in 200 μl. Tumor growth was monitored by measuring the perpendicular diameters of tumors every other day and mice were sacrificed at a humane endpoint. FVB mice were injected orthotopically in the head of the pancreas with 10′000 KPC cells in 20 μl. Body weight was monitored and mice were sacrificed at a humane endpoint. Alternatively, FVB mice were injected subcutaneously in the right flank with 0,5*10^6 KPC cells in 200 μl. Tumor growth was monitored by measuring the perpendicular diameters of tumors every other day and mice were sacrificed at a humane endpoint. For immunotherapy treatment the mice were treated intraperitoneally (i.p.) with 10 mg/kg of either control IgG, anti-PD-1 (αPD-1), anti-PDL1 (αPDL1), or anti-CTLA-4 (αCTLA-4) antibodies (3×/week). For CD8 depletion mice were injected i.p. with an anti-CD8 antibody (10 mg/kg) 3 days before tumor inoculation and then 1 time per week. For in vivo slc4a4 inhibition, mice were treated with 15 mg/kg of 4,4′-Diisothiocyano-2,2′-stilbenedisulfonic acid (DIDS) i.p. bi-daily for a period of 10 days. Antibodies: Rat serum IgG (14131) (Sigma-Aldrich); Ultra-LEAF™ Purified PD-1anti-mouse (CD279) RMP1-14 (BioLegend); InVivoMAb anti-mouse CTLA-4 (CD152) (BioCell); InVivoMAb anti-mouse CD8α (BioCell); InVivoMab anti-mouse PD-L1 (B7-H1) (BioCell).
Mice were sacrifice by cervical dislocation and the tumor were harvested in cold PBS. Tumors were minced in alpha MEM (Lonza) containing 0,085 mg/ml Collagenase V (Sigma), 0,125 mg/ml Collagenase D (Roche) and 0,1 mg/ml Dispase (Gibco), and incubated in the same solution for 30 minutes at 37° C. The digested tissues were filtered using a 70-μm pore sized strainer and cells were centrifuged 5 minutes at 300 xg. Red blood cell lysis was performed by using a home-made red blood cell lysis buffer (150 mM NH4Cl, 0.1 mM EDTA, 10 mM KHCO3, pH 7.4. Single cells were resuspended in FACS buffer (PBS containing 2% FBS and 2 mM EDTA) and incubated for 15 minutes with Mouse BD Fc Block purified anti-mouse CD16/CD32 mAb (BD-Pharmingen) and stained for 30 minutes at 4° C. with the following antibodies: Fixable viability dye (eFluor™ 450 or eFluor™ 506, 1:500),CD45 (PE, 1:200), TCRβ (FITC, 1:300), CD4 (PercPcy5.5, 1:400), CD8 (APC-cy7, 1:300), IFNγ (PE-cy7, 1:100), Foxp3 (APC, 1:100), TBet1 (BV421, 1:50)-from BD Biosciences. Cells were subsequently washed and resuspended in FACS buffer before FACS analysis by a FACS Canto II (BD Biosciences). Data was analyzed by Flowio (TreeStar).

KPC orthotopic tumors [2] = assay: DIDS treatment of mice bearing orthotopic KPC tumors (tumor growth, tumor weight); type: in vivo, mouse; details: 15 mg/kg DIDS i.p. bi-daily for 10 days
Method: as §1, with “Antibodies: Rat serum IgG (14131) (Sigma-Aldrich); Ultra-LEAF™ Purified PD-1anti-mouse (CD279) RMP1-14 (BioLegend); InVivoMAb anti-mouse CTLA-4 (CD152) (BioCell); InVivoMAb anti-mouse CD8α (BioCell); InVivoMab anti-mouse PD-L1 (B7-H1) (BioCell).” left out

O=S(=O)(O)c1cc(N=C=S)ccc1C=Cc1ccc(N=C=S)cc1S(=O)(=O)O [DIDS, 4,4′-diisothiocyano-2,2′-stilbenedisulfonic acid]
CD8+ T cells infiltration (KPC orthotopic tumors [1]): increase | CD8+/CD4+ T cell ratio (KPC orthotopic tumors [1]): increase | IFNγ expression of CD8+ T cells (KPC orthotopic tumors [1]): increase | number of CD4+ T cells (KPC orthotopic tumors [1]): no differences | number of Treg (KPC orthotopic tumors [1]): no differences | tumor reduction upon treatment (KPC orthotopic tumors [2]; Slc4a4-KD orthotopic KPC tumors): no differences in tumor reduction | tumor growth (KPC orthotopic tumors [2]; wild-type (control, NT) orthotopic KPC tumors): reduction in tumor growth
